Data: ChEMBL document CHEMBL5230155, “Recent contributions of quinolines to antimalarial and anticancer drug discovery research” (Eur J Med Chem, 2021)
Values after ≈ are worked out from the molar mass of the structure shown.

Tests used:
[1] = biological target: Prostaglandin G/H synthase 2 (Homo sapiens, UniProt P35354)
Description: Inhibition of COX-2 (unknown origin)

G-361 = test: Antiproliferative activity against human G-361 cells; format: functional, cell-based
MCF7 [2] = test: Antiproliferative activity against human MCF7 cells; format: functional, cell-based
MCF7 [3] = test: Induction of apoptosis in human MCF7 cells assessed as accumulation at G2/M phase at 10 uM (reference value: 10%); format: functional
A2780 = test: Induction of apoptosis in human A2780 cells assessed as accumulation at G2/M phase at 5 uM (reference value: 10%); format: functional
Plasmodium falciparum [4] = test: Antimalarial activity against CQ-resistant Plasmodium falciparum RKL9; format: functional, organism-based
Plasmodium berghei [5] = test: Antiplasmodial activity against Plasmodium berghei infected in mouse assessed as reduction in parasitaemia at 200 mg/kg/day, ip administered for 4 days; format: functional; parameters: scale not given: the % may be the effect or the level left; settings: time 4 day
Plasmodium falciparum [6] = test: Antimalarial activity against CQ-sensitive Plasmodium falciparum 3D7; format: functional, organism-based
Plasmodium falciparum [7] = test: Selectivity index, ratio of IC50 for Chloroquine resistant Plasmodium falciparum W2 to IC50 for Chloroquine sensitive Plasmodium falciparum 3D7; format: functional
Plasmodium falciparum [8] = test: Antimalarial activity against CQ-resistant Plasmodium falciparum W2; format: functional, organism-based
[9] = Cytotoxicity against human MRC5 cells; format: toxicity, cell-based
Huh-7 = test: Cytotoxicity against human Huh-7 cells; format: functional, cell-based
SMMC-7721 = test: Cytotoxicity against human SMMC-7721 cells; format: functional, cell-based
HepG2 [10] = test: Cytotoxicity against human HepG2 cells; format: functional, cell-based
[11] = Cytotoxicity against human L02 cells; format: toxicity, cell-based
[12] = Binding affinity to human nRNP
HeLa = test: Antitumor activity against human HeLa cells xenografted in mouse assessed as reduction in tumor weight at 20 mg/kg/day, ip for 3 weeks; format: functional; parameters: scale not given: the % may be the effect or the level left
Plasmodium falciparum [13] = test: Antimalarial activity against CQ-resistant Plasmodium falciparum 7G8; format: functional, organism-based
Plasmodium falciparum [14] = test: Antimalarial activity against multidrug resistant Plasmodium falciparum Dd2; format: functional, organism-based
Lymphocyte = test: Cytotoxicity against mouse spleen lymphocytes; format: toxicity, cell-based
Plasmodium falciparum [15] = test: Antimalarial activity against CQ-sensitive Plasmodium falciparum D6; format: functional, organism-based
CWR22R = test: Antiproliferative activity against human 22Rv1 cells; format: functional, cell-based
PC-3 [16] = test: Antitumor activity against human PC-3 cells xenografted in nude mouse assessed as cell growth inhibition at 50 mg/kg/day, ig administered for 21 days; format: functional; parameters: scale not given: the % may be the effect or the level left; settings: time 21 day
DU-145 = test: Antiproliferative activity against human DU-145 cells; format: functional, cell-based
PC-3 [17] = test: Antiproliferative activity against human PC-3 cells; format: functional, cell-based
Tubulin = test: Inhibition of tubulin polymerization (unknown origin); format: protein-complex assay, Homo sapiens
PC-3 [18] = test: Antitumor activity against human PC-3 cells xenografted in nude mouse assessed as cell growth inhibition at 100 mg/kg/day, ig administered for 21 days; format: functional; parameters: scale not given: the % may be the effect or the level left; settings: time 21 day
LNCaP C4-2B = test: Antiproliferative activity against human LNCaP C4-2B cells; format: functional, cell-based
[19] = biological target: Histone-lysine N-methyltransferase, H3 lysine-79 specific (Homo sapiens, UniProt Q8TEK3); test: Inhibition of DOT1L (unknown origin)
Sequence of Histone-lysine N-methyltransferase, H3 lysine-79 specific (Q8TEK3 whole entry): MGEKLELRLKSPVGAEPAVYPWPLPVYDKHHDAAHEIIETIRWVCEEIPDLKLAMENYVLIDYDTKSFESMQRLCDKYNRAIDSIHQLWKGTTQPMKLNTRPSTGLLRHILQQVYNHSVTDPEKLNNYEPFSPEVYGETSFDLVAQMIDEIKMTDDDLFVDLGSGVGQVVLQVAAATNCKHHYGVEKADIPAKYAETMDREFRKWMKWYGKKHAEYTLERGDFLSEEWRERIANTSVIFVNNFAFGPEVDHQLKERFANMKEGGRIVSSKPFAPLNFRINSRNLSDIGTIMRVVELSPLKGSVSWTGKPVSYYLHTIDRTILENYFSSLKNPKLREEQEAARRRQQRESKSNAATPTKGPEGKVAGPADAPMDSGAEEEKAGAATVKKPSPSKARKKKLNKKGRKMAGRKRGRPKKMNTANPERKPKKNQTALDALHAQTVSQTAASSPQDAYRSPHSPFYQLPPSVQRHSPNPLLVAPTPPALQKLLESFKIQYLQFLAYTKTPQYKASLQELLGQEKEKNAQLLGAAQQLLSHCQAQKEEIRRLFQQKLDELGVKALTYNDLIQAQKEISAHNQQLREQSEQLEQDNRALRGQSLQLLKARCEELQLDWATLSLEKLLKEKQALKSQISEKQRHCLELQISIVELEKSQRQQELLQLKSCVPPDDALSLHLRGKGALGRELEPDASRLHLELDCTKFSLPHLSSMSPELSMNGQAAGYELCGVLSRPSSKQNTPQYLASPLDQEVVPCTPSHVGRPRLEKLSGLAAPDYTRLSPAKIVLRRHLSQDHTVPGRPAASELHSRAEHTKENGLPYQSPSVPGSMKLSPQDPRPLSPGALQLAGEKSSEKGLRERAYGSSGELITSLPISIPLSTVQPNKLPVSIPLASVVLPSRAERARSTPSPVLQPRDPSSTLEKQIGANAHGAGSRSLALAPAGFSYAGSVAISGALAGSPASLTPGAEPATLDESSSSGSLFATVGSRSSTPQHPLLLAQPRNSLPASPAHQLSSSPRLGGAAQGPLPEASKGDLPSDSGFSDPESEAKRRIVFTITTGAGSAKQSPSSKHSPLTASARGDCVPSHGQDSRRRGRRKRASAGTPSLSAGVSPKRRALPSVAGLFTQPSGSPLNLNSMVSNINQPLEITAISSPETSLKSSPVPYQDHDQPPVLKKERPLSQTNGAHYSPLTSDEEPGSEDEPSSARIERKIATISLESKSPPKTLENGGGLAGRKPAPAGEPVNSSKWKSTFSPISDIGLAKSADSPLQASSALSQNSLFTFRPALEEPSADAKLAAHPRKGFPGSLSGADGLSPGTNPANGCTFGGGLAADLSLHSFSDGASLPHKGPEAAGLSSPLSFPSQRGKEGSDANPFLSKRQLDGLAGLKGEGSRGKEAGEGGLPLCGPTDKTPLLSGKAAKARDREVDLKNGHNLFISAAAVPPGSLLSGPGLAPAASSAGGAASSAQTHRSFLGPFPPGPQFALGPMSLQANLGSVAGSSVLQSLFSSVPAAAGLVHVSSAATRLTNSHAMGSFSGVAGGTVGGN

MV4-11 = test: Antiproliferative activity against human MV4-11 cells; format: functional, cell-based
HepG2 [20] = test: Antitumor activity against human HepG2 cells xenografted in nude mouse assessed as reduction in tumor increment rate at 20 mg/kg/day (reference value: 100%); format: functional; parameters: scale not given: the % may be the effect or the level left
NCI-H460 = test: Antiproliferative activity against human NCI-H460 cells; format: functional, cell-based
BEL-7404 tumor cell line = test: Antiproliferative activity against human BEL-7404 cells; format: functional, cell-based
SK-OV-3 = test: Antiproliferative activity against human SK-OV-3 cells; format: functional, cell-based
SNU-423 = test: Antiproliferative activity against human SNU-423 cells; format: functional, cell-based
MDA-MB-453 = test: Antiproliferative activity against human MDA-MB-453 cells; format: functional, cell-based
T-24 = test: Antiproliferative activity against human T24 cells; format: functional, cell-based
UMUC3 = test: Antiproliferative activity against human UMUC3 cells; format: functional, cell-based
RT-4 = test: Antiproliferative activity against human RT-4 cells; format: functional, cell-based
RT-112 = test: Antiproliferative activity against human RT-112 cells; format: functional, cell-based
Raji = test: Cytotoxicity against human Raji cells; format: functional, cell-based
MDA-MB-231 = test: Cytotoxicity against human MDA-MB-231 cells; format: functional, cell-based
U-937 = test: Cytotoxicity against human U-937 cells; format: functional, cell-based
KG-1 = test: Cytotoxicity against human KG-1 cells; format: functional, cell-based
HCT-116 = test: Cytotoxicity against human HCT-116 cells; format: functional, cell-based
[21] = biological target: Serine/threonine-protein kinase mTOR (Homo sapiens, UniProt P42345); test: Inhibition of mTOR (unknown origin)
[22] = biological target: Dual specificity mitogen-activated protein kinase kinase 1 (Homo sapiens, UniProt Q02750); test: Inhibition of MEK1 (unknown origin)
Sequence of Dual specificity mitogen-activated protein kinase kinase 1 (Q02750 whole entry): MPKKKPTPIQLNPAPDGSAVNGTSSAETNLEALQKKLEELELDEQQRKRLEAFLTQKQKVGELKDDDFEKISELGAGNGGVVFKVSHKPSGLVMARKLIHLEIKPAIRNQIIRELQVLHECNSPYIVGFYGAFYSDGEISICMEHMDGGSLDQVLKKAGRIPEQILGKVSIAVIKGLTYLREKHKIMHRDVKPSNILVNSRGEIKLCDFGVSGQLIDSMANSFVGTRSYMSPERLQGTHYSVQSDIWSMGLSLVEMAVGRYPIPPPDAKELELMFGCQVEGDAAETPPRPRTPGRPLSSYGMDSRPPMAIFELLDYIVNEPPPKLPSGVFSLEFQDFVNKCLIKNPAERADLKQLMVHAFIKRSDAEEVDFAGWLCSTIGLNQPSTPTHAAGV

Hep 3B2 [23] = test: Cytotoxicity against human Hep3B cells; format: functional, cell-based
[24] = Cytotoxicity against human SLMT-1 cells
RPMI-8226 = test: Cytotoxicity against human RPMI-8226 cells; format: functional, cell-based
HepG2 [25] = test: Antitumor activity against human HepG2 cells xenografted in nude mouse assessed as reduction in tumor increment rate at 5 mg/kg/day (reference value: 100%); format: functional; parameters: scale not given: the % may be the effect or the level left
[26] = biological target: Epidermal growth factor receptor (Homo sapiens, UniProt P00533); test: Inhibition of EGFR (unknown origin)
Sequence of Epidermal growth factor receptor (P00533 whole entry): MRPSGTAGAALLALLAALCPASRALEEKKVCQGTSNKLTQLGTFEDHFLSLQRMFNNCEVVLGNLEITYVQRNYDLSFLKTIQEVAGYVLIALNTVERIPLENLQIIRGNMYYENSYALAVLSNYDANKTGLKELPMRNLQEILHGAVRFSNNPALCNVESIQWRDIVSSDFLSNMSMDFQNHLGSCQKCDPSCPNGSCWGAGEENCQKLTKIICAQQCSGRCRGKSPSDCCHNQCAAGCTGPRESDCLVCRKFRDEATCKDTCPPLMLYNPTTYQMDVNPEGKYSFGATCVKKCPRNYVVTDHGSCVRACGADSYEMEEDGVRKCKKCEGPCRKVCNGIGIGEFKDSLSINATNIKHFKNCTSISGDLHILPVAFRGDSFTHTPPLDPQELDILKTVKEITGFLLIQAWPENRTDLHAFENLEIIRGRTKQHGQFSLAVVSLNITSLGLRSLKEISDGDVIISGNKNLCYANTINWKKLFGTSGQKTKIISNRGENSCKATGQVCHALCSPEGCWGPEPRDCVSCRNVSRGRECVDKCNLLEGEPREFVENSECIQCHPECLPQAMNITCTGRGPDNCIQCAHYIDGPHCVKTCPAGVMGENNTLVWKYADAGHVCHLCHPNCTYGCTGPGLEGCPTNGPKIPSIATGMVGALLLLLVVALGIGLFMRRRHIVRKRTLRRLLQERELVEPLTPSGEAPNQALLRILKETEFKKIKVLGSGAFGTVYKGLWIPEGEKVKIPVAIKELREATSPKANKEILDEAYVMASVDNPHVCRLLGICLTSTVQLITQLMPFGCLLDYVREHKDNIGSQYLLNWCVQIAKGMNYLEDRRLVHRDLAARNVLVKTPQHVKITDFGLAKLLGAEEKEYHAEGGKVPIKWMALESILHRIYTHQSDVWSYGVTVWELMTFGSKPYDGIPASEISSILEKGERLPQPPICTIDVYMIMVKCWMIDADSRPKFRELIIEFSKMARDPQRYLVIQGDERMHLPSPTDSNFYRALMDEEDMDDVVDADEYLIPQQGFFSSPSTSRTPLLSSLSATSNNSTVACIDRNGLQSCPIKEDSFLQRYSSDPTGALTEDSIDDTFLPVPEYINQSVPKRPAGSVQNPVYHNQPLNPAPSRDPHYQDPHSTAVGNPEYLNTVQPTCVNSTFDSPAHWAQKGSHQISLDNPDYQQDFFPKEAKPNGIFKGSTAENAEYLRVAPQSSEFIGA

[27] = biological target: Cathepsin B (Homo sapiens) (UniProt P07858); test: Inhibition of human cathepsin B endopeptidase activity at 50 uM relative to control
Hemozoin = test: Inhibition of beta-hematin formation
Plasmodium berghei [28] = test: Inhibition of hemozoin formation in Plasmodium berghei infected in mouse; format: functional
Plasmodium berghei [29] = test: Antiplasmodial activity against Plasmodium berghei infected in mouse assessed as reduction in parasitaemia at 105 umol/kg, po; format: functional; parameters: scale not given: the % may be the effect or the level left; settings: dose 105 µmol/kg
Plasmodium berghei [30] = test: Antiplasmodial activity against Plasmodium berghei infected in mouse assessed as reduction in parasitaemia at 35 umol/kg, sc administered for 4 days; format: functional; parameters: scale not given: the % may be the effect or the level left; settings: dose 35 µmol/kg, time 4 day
Hep 3B2 [31] = test: Cytotoxicity against human Hep3B cells assessed as relative value at 15 uM after 48 hrs by MTS method; format: functional
MGC-803 = test: Antiproliferative activity against human MGC-803 cells

Sequence of Prostaglandin G/H synthase 2 (P35354 whole entry): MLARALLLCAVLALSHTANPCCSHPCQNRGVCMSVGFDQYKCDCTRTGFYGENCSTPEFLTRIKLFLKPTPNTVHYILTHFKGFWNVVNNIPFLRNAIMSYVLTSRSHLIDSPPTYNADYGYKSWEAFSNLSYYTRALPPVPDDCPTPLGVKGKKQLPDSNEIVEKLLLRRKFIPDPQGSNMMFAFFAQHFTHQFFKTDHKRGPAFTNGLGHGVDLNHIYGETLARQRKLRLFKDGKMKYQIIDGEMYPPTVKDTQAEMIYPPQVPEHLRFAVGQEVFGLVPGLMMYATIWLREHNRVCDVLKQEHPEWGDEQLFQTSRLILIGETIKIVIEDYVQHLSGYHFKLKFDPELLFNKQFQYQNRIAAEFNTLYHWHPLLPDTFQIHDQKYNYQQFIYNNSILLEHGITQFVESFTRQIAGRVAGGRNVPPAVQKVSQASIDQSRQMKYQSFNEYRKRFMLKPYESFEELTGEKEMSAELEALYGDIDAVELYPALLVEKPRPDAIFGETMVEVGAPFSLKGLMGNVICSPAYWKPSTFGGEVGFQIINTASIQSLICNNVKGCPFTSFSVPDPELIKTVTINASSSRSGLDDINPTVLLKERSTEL

COc1ccc2ccc(F)c(CC(=O)N/N=C/c3cccc(C(F)(F)F)c3)c2n1
IC50 [1]: 130 nM | IC50 (G-361; read-out: IC50): 2070 nM | IC50 (MCF7 [2]; Homo sapiens, MCF7): 2070 nM

COc1cc(C(=O)/C=C/c2c(Cl)nc3c(C(=O)c4ccccc4)cccc3c2OC)cc(OC)c1OC
Activity (MCF7 [3]): 50% | Activity (A2780): 50%

Cc1ccc(/C=C2/SC(c3ccc(Cl)cc3)N(Nc3cc(C)c4ccccc4n3)C2=O)cc1 (configuration not stated)
IC50 (Plasmodium falciparum [4]): 0.824 µg/mL (≈ 1.75 µM) | Activity (Plasmodium berghei [5]): 73.4% | IC50 (Plasmodium falciparum [6]): 0.423 µg/mL

CN1CCN(CCNCc2ccc(-c3cc(-c4ccc(CNCCN5CCN(C)CC5)cc4)c4ccccc4n3)cc2)CC1
Ratio IC50 (Plasmodium falciparum [7]): 20 | IC50 (Plasmodium falciparum [8]): 130 nM | IC50 (Plasmodium falciparum [6]): 2420 nM

COc1ccc(/C=N/NC(=O)c2ccc(Nc3ccnc4ccccc34)cc2)cc1OC
IC50 [9]: 16100 nM | IC50 (Huh-7): 6300 nM | IC50 (SMMC-7721): 6300 nM | IC50 (HepG2 [10]; Homo sapiens, HepG2): 126000 nM | IC50 [11]: 16100 nM

COc1ccc(C(=O)/C=C/c2cc(N3CCOCC3)c3cc([N+](=O)[O-])ccc3n2)cc1
Kd [12]: 4600 nM | Activity (HeLa): 69.3%

Clc1ccc2c(NCCCN3CCC(Nc4ccnc5cc(Cl)ccc45)CC3)ccnc2c1
IC50 (Plasmodium falciparum [13]): 0.33 nM | IC50 (Plasmodium falciparum [14]): 0.36 nM | LC50 (Lymphocyte): 190 nM | IC50 (Plasmodium falciparum [15]): 0.15 nM

COc1cc(N(CCSC(=S)N2CCN(CCO)CC2)S(=O)(=O)c2cccc3cccnc23)cc(OC)c1OC
IC50 (CWR22R): 670 nM | Activity (PC-3 [16]): 35.6% | IC50 (DU-145): 670 nM | IC50 (PC-3 [17]): 430 nM | IC50 (Tubulin): 4020 nM | Activity (PC-3 [18]): 61.4% | IC50 (LNCaP C4-2B): 670 nM

CCN(CCNC(=O)Nc1ccc(C(C)(C)C)cc1)c1nc(C)cc(Nc2ccc3nc(C)cc(N)c3c2)n1
IC50 [19]: 5720 nM | IC50 (MV4-11): 1620 nM

Cc1cc2nc(-c3cc4ccccc4nc3Cl)[nH]c2cc1C
Activity (HepG2 [20]): 19.5% | IC50 (NCI-H460): 7540 nM | IC50 (BEL-7404 tumor cell line): 7540 nM | IC50 (SK-OV-3): 7540 nM | IC50 (HepG2 [10]; Homo sapiens, HepG2): 7540 nM

COc1cc(N(CCCSC(=S)N2CCN(C(C)=O)CC2)S(=O)(=O)c2cccc3cccnc23)cc(OC)c1OC
IC50 (SNU-423): 700 nM | IC50 (MDA-MB-453): 700 nM | IC50 (T-24): 2600 nM | IC50 (UMUC3): 900 nM | IC50 (Tubulin): 2900 nM | IC50 (RT-4): 1900 nM | IC50 (RT-112): 700 nM

O=C(Nc1ccc(NC(=O)c2ccc(Nc3ccnc4ccccc34)cc2)cc1)OCc1ccccc1
IC50 (PC-3 [17]): 300 nM | IC50 (Raji): 300 nM | IC50 (MDA-MB-231): 300 nM | IC50 (U-937): 300 nM | IC50 (KG-1): 300 nM

Cc1c(Cc2cccc(N(C)S(=O)(=O)CCCNCCCC(=O)N3CCN(c4ccc(Nc5c(C(N)=O)cnc6ccc(-c7cnc8ccccc8c7)cc56)cc4C(F)(F)F)CC3)c2)c(=O)oc2cc(OC(=O)N(C)C)ccc12
GI50 (HCT-116): 4660 nM | IC50 [21]: 190 nM | IC50 [22]: 980 nM

COc1cccc2c1C(=O)c1c(O)c3c(c(O)c1C2=O)C[C@@](O)(C(=O)CO)C[C@@H]3O[C@H]1C[C@H](N)[C@H](O)[C@H](C)O1 [DOXORUBICIN]
IC50 (Hep 3B2 [23]): 270 nM | IC50 (HCT-116): 410 nM | IC50 [24]: 270 nM | IC50 (RPMI-8226): 410 nM | IC50 (G-361): 2440 nM | IC50 (MCF7 [2]; mcf7): 1980 nM

CC(=O)O[C@H]1C(=O)[C@@]2(C)[C@H]([C@H](OC(=O)c3ccccc3)[C@]3(O)C[C@H](OC(=O)[C@H](O)[C@@H](NC(=O)c4ccccc4)c4ccccc4)C(C)=C1C3(C)C)[C@]1(OC(C)=O)CO[C@@H]1C[C@@H]2O [PACLITAXEL]
Activity (HepG2 [25]): 19%

Cc1ccc2nc(/C=C/c3ccc(N(C)C)cc3)cc(-c3nnc(N)s3)c2c1
IC50 (HCT-116): 7.7 µg/mL | IC50 (HepG2 [10]; Homo sapiens, HepG2): 7.7 µg/mL | IC50 [26]: 1110 nM

O=[N+]([O-])c1ccc(O)c2ncccc12
inhibition [27]: 27.7%

Cc1cc(Nc2ccc(NC(=O)c3ccc(Nc4ccnc5ccccc45)cc3)cc2)nc(N)n1
IC50 (PC-3 [17]): 1700 nM | IC50 (Raji): 1700 nM | IC50 (MDA-MB-231): 1700 nM | IC50 (KG-1): 1700 nM

C[C@@H]1CCC2[C@@H](C)[C@H](OC(=O)CCC(=O)OCCNc3ccnc4cc(Cl)ccc34)O[C@@H]3O[C@@]4(C)CC[C@@H]1[C@@]23OO4 (some centres not stated)
IC50 (Hemozoin): 560000 nM | inhibition (INH) (Plasmodium berghei [28]): 71.9% | Activity (Plasmodium berghei [29]): 78.6% | Activity (Plasmodium berghei [30]): 95.2%

Cc1cc(Nc2ccc3nc(C)cc(N)c3c2)nc(NCCCCCCNC(=O)Nc2cc(C(F)(F)F)cc(C(F)(F)F)c2)n1
IC50 [19]: 3550 nM | IC50 (MV4-11): 1290 nM

O=S(=O)(Nc1cccc2cccnc12)c1cccc2cccnc12
IC50 (Hep 3B2 [23]): 1230 nM | IC50 [24]: 1230 nM | fold change (FC) (Hep 3B2 [31]): 0.23 | IC50 (MCF7 [2]; Homo sapiens, MCF7): 1230 nM

O=c1[nH]cc(F)c(=O)[nH]1 [FLUOROURACIL]
IC50 (NCI-H460): 26300 nM | IC50 (SNU-423): 7400 nM | IC50 (HCT-116): 5.3 µg/mL | IC50 (MDA-MB-453): 7400 nM | IC50 (PC-3 [17]): 10400 nM | IC50 (BEL-7404 tumor cell line): 26300 nM | IC50 (SK-OV-3): 26300 nM | IC50 (HepG2 [10]; Homo sapiens, HepG2): 5.3 µg/mL | IC50 (HepG2 [10]; hepg2): 26300 nM | IC50 (RT-112): 7400 nM | IC50 (MGC-803): 10400 nM
